Data published in US6838557B1, “Process for making a chelating agent for labeling biomolecules using preformed active esters” (Board of Regents The University of Texas System, priority 2002, dated 2005).

Test: Stability of DOTA mono-NHS in water by 1H NMR (rate of change in the ratio Afree/Abound)
Assay type: physicochemical
Conditions: neutral pH, read-out: half-life for hydrolysis
Excerpt: For example, ^1H NMR spectra, such as that illustrated in FIG. 1, were used to measure the ratio of the areas (Afree/Abound) of the ^1H NMR signal corresponding to NHS free in solution (δfree −2.6 ppm; Free NHS), relative to the signal corresponding to NHS covalently bound to DOTA (δbound −2.85 ppm; Bound NHS). […] Similar results were obtained by measuring the relative areas of the ^13C signals corresponding to free and bound NHS (δbound −25.5 ppm and δfree −25.2 ppm; FIG. 2).
Similar to that described above, the NMR data was used to estimate the percentage of free NHS. […] The stability of DOTA mono-NHS in water was also assessed using ^1H NMR by measuring the rate of change in the ratio Afree/Abound at neutral pH.

`O=C(O)CN1CCN(CC(=O)O)CCN(CC(=O)ON2C(=O)CCC2=O)CCN(CC(=O)O)CC1` [DOTA mono-NHS, 1,4,7,10-tetraazacyclododecane-1,4,7,10-tetra(aceticacid)-10-mono(N-hydroxysuccinimidyl ester)] gave a half-life of ~30 min.
